Measured values as given in patent publication US20160289186A1, “FLUOROMETHYL-SUBSTITUTED PYRROLE CA[…]” (Grunenthal GmbH, priority 2013, published 2016).

biological target: T1, Human CaV2.2 channels (Homo sapiens, UniProt Q00975); assay: Fluorescent (FLIPR) assay for CaV2.2 channels using potassium depolarization to induce channel opening; assay type: cell-based; settings: 3 μM compound; 30 mM KCl assay buffer (inactivated channel state); HEK293 cells stably expressing human CaV2.2; read-out: Activity Category: %-Inhib (CaV2.2) @3 μM @30 mM KCl
T1 construct: expressed in transfected cells; host or cells: HEK293
Excerpt: In the process, the Ca^2+ influx is quantified in the FLIPR assay with the aid of a Ca^2+-sensitive dye (type Fluo-4, Molecular Probes Europe BV, Leiden, the Netherlands) in a fluorescent imaging plate reader (FLIPR 3, Molecular Devices, Sunnyvale, USA), as described hereinafter.
Human CaV2.2 channels were stably expressed in HEK293 cells together with alpha2-delta and beta subunits of voltage gated calcium channels. In addition, an inwardly rectifying potassium channel (Kir2.3) was stably expressed in these cells to augment control of the cell membrane potential by the concentration of extracellular potassium ions. Raise of the extracellular potassium concentration leads to depolarization of the membrane potential and thus regulates the voltage dependent state of CaV2.2 channels. For preparation, cells were seeded in black poly-D-lysine coated 96-well plates (Becton Dickinson, Biocoat 4640) in 100 μL medium [500 mL DMEM/F-12 plus Glutamax (Invitrogen 31331-093) plus 5.5 mL MEM NEAA 100× (Invitrogen 11140-035) plus 50 mL FBS decomplemented (Invitrogen 10270-106) plus 200 μg/mL Geneticin (Invitrogen 10131-027) plus 50 μg/mL Hygromycin B (Invitrogen 10687-010) plus 2 μg/mL Blasticidin (anti-bl5b Invivo-Gen) plus 0.2 μg/mL Puromycin (A 11138-03)] at a cell density of 30.000 cells per well. Plates were incubated at 37° C. (5% CO2) for 20 to 23 h. On the day of experiment medium was discarded and cells were loaded with Fluo 4 by addition of 100 μL of basic assay buffer (10 mM HEPES, 1 mM KCl, 149 mM NaCl, 0.8 mM CaCl2, 1.7 mM MgCl2, 10 mM Glucose, 0.1% BSA. pH 7.4) containing 2 μM Fluo 4 (Molecular Probes; F-14201), 0.01% pluronic acid (Molecular Probes; P-6866) and 2.5 mM probenecid (Molecular Probes; P36400). Cells were incubated in the dark at 25° C. for 60 min. Then dye containing buffer was discarded and 100 μL basic (1 mM KCl) or alternative (30 mM KCl) assay buffer was added. The alternative assay buffer contained altered concentrations of KCl (30 mM) and NaCl (120 mM) and was used in order to promote the inactivated channel state. After that 25 μL of basic or alternative assay buffer with or without test compound were added and cells were incubated again in the dark at 25° C. for 15 min. Fluorescence intensity was measured on a FLIPR 3 instrument (Molecular Devices Corp., Sunnyvale, Calif.) with excitation at 480 nm and emission at 535 nm. After continuously reading fluorescence for 30 sec, 50 μL of basic assay buffer containing 210 mM KCl (NaCl omitted) were added for depolarization. Peak fluorescent signal intensity was determined and the amplitude of the peak signal, normalized to base line, was used to measure channel inhibition by test compounds.

T1 sequence (Q00975 whole entry): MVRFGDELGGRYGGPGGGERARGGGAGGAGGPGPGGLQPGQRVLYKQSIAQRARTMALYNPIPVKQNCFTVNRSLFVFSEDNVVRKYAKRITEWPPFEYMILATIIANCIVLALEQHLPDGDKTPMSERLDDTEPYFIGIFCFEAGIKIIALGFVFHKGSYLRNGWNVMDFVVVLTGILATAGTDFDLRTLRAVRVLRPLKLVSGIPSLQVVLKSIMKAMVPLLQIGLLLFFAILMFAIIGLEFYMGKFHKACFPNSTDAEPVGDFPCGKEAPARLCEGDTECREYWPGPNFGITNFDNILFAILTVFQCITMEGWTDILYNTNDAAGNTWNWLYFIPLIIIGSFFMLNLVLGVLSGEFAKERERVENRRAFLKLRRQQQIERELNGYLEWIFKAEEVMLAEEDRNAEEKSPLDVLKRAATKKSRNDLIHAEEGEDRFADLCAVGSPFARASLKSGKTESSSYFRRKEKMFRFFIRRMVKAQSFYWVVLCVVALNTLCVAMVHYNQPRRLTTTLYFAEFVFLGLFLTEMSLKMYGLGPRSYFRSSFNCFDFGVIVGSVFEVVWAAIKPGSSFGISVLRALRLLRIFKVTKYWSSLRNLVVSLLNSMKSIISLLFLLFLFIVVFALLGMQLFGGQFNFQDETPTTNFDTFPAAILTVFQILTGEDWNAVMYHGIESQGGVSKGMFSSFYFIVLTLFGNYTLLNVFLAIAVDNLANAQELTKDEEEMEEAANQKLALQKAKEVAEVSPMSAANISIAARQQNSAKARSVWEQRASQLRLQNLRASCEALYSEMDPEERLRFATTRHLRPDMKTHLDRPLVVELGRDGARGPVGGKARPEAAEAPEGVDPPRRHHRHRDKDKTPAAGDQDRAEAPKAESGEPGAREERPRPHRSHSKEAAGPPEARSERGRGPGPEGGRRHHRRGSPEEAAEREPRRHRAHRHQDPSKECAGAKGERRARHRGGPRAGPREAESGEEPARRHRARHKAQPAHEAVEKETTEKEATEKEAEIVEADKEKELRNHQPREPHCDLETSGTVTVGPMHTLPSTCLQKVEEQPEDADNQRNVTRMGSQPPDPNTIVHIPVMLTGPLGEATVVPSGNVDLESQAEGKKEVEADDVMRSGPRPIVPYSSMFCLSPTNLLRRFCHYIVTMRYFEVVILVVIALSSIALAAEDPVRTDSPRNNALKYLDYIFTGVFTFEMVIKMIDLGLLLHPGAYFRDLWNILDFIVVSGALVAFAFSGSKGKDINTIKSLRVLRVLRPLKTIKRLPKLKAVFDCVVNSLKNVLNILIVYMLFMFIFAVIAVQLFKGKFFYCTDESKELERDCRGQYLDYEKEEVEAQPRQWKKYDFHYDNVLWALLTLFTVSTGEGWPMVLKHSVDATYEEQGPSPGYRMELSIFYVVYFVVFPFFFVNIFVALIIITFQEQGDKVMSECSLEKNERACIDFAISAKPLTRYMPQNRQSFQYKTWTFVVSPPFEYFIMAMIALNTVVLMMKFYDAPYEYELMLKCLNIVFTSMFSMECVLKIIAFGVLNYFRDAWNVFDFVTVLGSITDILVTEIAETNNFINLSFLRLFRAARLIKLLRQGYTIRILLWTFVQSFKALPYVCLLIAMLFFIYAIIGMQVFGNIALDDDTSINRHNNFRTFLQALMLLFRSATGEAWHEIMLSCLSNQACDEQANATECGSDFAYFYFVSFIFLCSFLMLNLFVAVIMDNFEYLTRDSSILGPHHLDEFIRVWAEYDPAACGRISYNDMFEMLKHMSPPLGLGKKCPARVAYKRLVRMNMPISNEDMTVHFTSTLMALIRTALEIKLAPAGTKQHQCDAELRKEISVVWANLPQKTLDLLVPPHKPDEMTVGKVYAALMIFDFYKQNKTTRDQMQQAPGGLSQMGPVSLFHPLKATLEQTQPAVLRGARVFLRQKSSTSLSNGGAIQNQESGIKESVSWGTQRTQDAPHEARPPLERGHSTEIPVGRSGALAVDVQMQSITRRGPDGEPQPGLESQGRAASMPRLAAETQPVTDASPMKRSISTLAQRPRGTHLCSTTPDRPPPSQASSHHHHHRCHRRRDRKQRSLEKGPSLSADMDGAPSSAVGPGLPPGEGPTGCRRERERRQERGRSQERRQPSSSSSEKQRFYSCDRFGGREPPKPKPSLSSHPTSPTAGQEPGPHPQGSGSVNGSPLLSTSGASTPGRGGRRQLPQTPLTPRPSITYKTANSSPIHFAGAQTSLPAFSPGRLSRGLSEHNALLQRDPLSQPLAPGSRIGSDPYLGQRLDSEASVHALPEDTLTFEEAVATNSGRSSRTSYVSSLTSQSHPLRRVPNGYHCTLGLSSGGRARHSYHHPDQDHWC
T1 sequence (P54284 whole entry, further chain): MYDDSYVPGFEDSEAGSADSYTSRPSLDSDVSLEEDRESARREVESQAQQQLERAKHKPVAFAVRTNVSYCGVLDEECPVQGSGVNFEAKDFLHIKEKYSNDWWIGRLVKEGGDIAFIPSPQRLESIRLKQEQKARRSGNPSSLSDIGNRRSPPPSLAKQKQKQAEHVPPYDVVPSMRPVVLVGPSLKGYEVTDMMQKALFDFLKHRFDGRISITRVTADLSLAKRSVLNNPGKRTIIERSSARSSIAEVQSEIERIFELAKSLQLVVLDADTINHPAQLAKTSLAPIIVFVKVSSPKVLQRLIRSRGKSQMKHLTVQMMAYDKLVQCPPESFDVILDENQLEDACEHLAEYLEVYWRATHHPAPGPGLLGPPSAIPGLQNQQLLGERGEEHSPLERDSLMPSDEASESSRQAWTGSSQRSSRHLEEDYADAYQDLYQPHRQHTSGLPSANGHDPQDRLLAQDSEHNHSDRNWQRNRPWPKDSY
T1 sequence (P54289 25-1103, further chain): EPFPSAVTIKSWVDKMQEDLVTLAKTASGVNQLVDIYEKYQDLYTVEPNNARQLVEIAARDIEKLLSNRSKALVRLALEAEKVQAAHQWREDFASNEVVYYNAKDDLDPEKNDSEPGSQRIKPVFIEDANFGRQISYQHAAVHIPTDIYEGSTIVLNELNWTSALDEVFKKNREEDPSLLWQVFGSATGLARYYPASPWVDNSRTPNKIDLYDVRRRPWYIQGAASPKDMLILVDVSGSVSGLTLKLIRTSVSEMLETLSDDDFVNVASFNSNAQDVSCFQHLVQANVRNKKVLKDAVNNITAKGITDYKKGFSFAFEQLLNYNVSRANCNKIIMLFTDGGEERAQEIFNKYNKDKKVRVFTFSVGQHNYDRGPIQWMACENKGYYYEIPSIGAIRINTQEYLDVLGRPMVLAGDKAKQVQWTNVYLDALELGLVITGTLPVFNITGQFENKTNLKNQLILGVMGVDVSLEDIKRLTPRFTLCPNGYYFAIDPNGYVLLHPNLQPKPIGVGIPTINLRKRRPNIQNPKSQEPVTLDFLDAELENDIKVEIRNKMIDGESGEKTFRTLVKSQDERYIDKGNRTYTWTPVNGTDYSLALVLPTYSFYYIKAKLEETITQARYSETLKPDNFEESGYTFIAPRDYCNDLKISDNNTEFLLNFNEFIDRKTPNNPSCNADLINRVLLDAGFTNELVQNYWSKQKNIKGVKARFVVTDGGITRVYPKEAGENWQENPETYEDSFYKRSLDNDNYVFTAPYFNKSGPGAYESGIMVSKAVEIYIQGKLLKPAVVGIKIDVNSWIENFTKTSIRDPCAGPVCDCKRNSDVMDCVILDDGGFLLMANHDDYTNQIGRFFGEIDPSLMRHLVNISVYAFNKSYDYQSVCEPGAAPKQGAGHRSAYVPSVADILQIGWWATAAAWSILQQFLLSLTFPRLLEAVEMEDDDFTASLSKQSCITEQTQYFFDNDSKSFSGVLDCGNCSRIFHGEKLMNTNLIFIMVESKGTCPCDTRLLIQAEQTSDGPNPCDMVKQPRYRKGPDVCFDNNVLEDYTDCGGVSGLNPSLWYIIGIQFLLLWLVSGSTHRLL

Compared with `Cc1c(-c2ccc(Cl)cc2)c(C(=O)N(Cc2ccccc2)C2CCOCC2)n(C)c1C(F)(F)F` [Example 001, N-Benzyl-3-(4-chlorophenyl)-1,4-dimethyl-N-tetrahydro-pyran-4-yl-5-(trifluoromethyl)-1H-pyrrole-2-carboxylic acid amide], `Cc1c(-c2ccc(Cl)cc2)c(C(=O)N(Cc2ccccc2)CC(C)(C)C)n(C)c1C(F)(F)F` [Example 003, N-Benzyl-3-(4-chlorophenyl)-N-(2,2-dimethyl-propyl)-1,4-dimethyl-5-(trifluoromethyl)-1H-pyrrole-2-carboxylic acid amide] is lower in inhibition at 3 µM: 75 to 95% for the first, 40 to 75% for the second.

Compared with `Cc1c(-c2ccc(Cl)cc2)c(C(=O)N(C)CC(C)(C)C)n(C)c1C(F)(F)F` [Example 002, 3-(4-Chlorophenyl)-N-(2,2-dimethyl-propyl)-N,1,4-trimethyl-5-(trifluoromethyl)-1H-pyrrole-2-carboxylic acid amide], `CCn1c(C(=O)N(C)CC(C)(C)C)c(-c2ccc(Cl)cc2)c(C)c1C(F)(F)F` [Example 005, 3-(4-Chlorophenyl)-N-(2,2-dimethyl-propyl)-1-ethyl-N,4-dimethyl-5-(trifluoromethyl)-1H-pyrrole-2-carboxylic acid amide] is lower in inhibition at 3 µM: 75 to 95% for the first, 40 to 75% for the second.

`Cc1c(-c2ccc(Cl)cc2)c(C(=O)N2CCOCC2)n(C)c1C(F)(F)F` [Example 004, [3-(4-Chlorophenyl)-1,4-dimethyl-5-(trifluoromethyl)-1H-pyrrol-2-yl]-morpholin-4-yl-methanone] and `Cc1c(-c2ccc(Cl)cc2)c(C(=O)N2CCOC(C)(C)C2)n(C(C)C)c1C(F)(F)F` [Example 006, [3-(4-Chlorophenyl)-1-isopropyl-4-methyl-5-(trifluoromethyl)-1H-pyrrol-2-yl]-(2,2-dimethyl-morpholin-4-yl)-methanone] fall in the same range of inhibition at 3 µM: 75 to 95% for the first, 75 to 95% for the second.

Compared with `Cc1c(-c2ccc(Cl)cc2)c(C(=O)N(C)C2(C(N)=O)CC2)n(C2CC2)c1C(F)(F)F` [Example 007, N-(1-Carbamoyl-cyclopropyl)-3-(4-chlorophenyl)-1-cyclopropyl-N,4-dimethyl-5-(trifluoromethyl)-1H-pyrrole-2-carboxylic acid amide], `Cc1c(-c2ccc(Cl)cc2)c(C(=O)N(C)C2CC2)n(C2CC2)c1C(F)(F)F` [Example 012, 3-(4-Chlorophenyl)-N,1-dicyclopropyl-N,4-dimethyl-5-(trifluoromethyl)-1H-pyrrole-2-carboxylic acid amide] is higher in inhibition at 3 µM: 40 to 75% for the first, 75 to 95% for the second.

`Cc1c(-c2ccc(Cl)cc2)c(C(=O)N(C)C2CCS(=O)(=O)CC2)n(C2CC2)c1C(F)(F)F` [Example 008, 3-(4-Chlorophenyl)-1-cyclopropyl-N-(1,1-dioxo-thian-4-yl)-N,4-dimethyl-5-(trifluoromethyl)-1H-pyrrole-2-carboxylic acid amide] and `Cc1c(-c2ccc(Cl)cc2)c(C(=O)N(C)C2CCOCC2)n(C2CC2)c1C(F)(F)F` [Example 014, 3-(4-Chlorophenyl)-1-cyclopropyl-N,4-dimethyl-N-tetrahydro-pyran-4-yl-5-(trifluoromethyl)-1H-pyrrole-2-carboxylic acid amide] fall in the same range of inhibition at 3 µM: 75 to 95% for the first, 75 to 95% for the second.

`Cc1c(-c2ccc(Cl)cc2)c(C(=O)N(C)CC(C)(C)C(N)=O)n(C2CC2)c1C(F)(F)F` [Example 009, N-(2-Carbamoyl-2-methyl-propyl)-3-(4-chlorophenyl)-1-cyclopropyl-N,4-dimethyl-5-(trifluoromethyl)-1H-pyrrole-2-carboxylic acid amide] and `Cc1c(-c2ccc(Cl)cc2)c(C(=O)N(C)CC(C)(C)O)n(C2CC2)c1C(F)(F)F` [Example 018, 3-(4-Chlorophenyl)-1-cyclopropyl-N-(2-hydroxy-2-methyl-propyl)-N,4-dimethyl-5-(trifluoromethyl)-1H-pyrrole-2-carboxylic acid amide] fall in the same range of inhibition at 3 µM: 75 to 95% for the first, 75 to 95% for the second.

`COc1ccc(CN(C)C(=O)c2c(-c3ccc(Cl)cc3)c(C)c(C(F)(F)F)n2C2CC2)cc1` [Example 010, 3-(4-Chlorophenyl)-1-cyclopropyl-N-[(4-methoxyphenyl)-methyl]-N,4-dimethyl-5-(trifluoromethyl)-1H-pyrrole-2-carboxylic acid amide] and `COc1ccc(CN(C)C(=O)c2c(-c3ccc(Cl)cc3)cc(C(F)(F)F)n2C2CC2)cc1` [Example 011, 3-(4-Chlorophenyl)-1-cyclopropyl-N-[(4-methoxyphenyl)-methyl]-N-methyl-5-(trifluoromethyl)-1H-pyrrole-2-carboxylic acid amide] fall in the same range of inhibition at 3 µM: 75 to 95% for the first, 75 to 95% for the second.

`CN(C(=O)c1c(-c2ccc(Cl)cc2)cc(C(F)(F)F)n1C1CC1)C1CC1` [Example 013, 3-(4-Chlorophenyl)-N,1-dicyclopropyl-N-methyl-5-(trifluoromethyl)-1H-pyrrole-2-carboxylic acid amide] and `CN(C(=O)c1c(-c2ccc(Cl)cc2)cc(C(F)(F)F)n1C1CC1)C1CCOCC1` [Example 015, 3-(4-Chlorophenyl)-1-cyclopropyl-N-methyl-N-tetrahydro-pyran-4-yl-5-(trifluoromethyl)-1H-pyrrole-2-carboxylic acid amide] fall in the same range of inhibition at 3 µM: 75 to 95% for the first, 75 to 95% for the second.

First: Cc1c(-c2ccc(Cl)cc2)c(C(=O)N(C)CC(C)(C)CN2CCOCC2)n(C2CC2)c1C(F)(F)F [Example 016, 3-(4-Chlorophenyl)-1-cyclopropyl-N-(2,2-dimethyl-3-morpholin-4-yl-propyl)-N,4-dimethyl-5-(trifluoromethyl)-1H-pyrrole-2-carboxylic acid amide]
Second: CN(CC(C)(C)CN1CCOCC1)C(=O)c1c(-c2ccc(Cl)cc2)cc(C(F)(F)F)n1C1CC1 [Example 017, 3-(4-Chlorophenyl)-1-cyclopropyl-N-(2,2-dimethyl-3-morpholin-4-yl-propyl)-N-methyl-5-(trifluoromethyl)-1H-pyrrole-2-carboxylic acid amide]
The inhibition at 3 µM of the first is higher: greater than 95% for the first, 75 to 95% for the second.

First: CN(CC(C)(C)O)C(=O)c1c(-c2ccc(Cl)cc2)cc(C(F)(F)F)n1C1CC1 [Example 019, 3-(4-Chlorophenyl)-1-cyclopropyl-N-(2-hydroxy-2-methyl-propyl)-N-methyl-5-(trifluoromethyl)-1H-pyrrole-2-carboxylic acid amide]
Second: CN(CC1CCOC1)C(=O)c1c(-c2ccc(Cl)cc2)cc(C(F)(F)F)n1C1CC1 (stereo not drawn) [Example 023, 3-(4-Chlorophenyl)-1-cyclopropyl-N-methyl-N-(tetrahydro-furan-3-yl-methyl)-5-(trifluoromethyl)-1H-pyrrole-2-carboxylic acid amide]
The inhibition at 3 µM of the first is lower: 40 to 75% for the first, 75 to 95% for the second.

`Cc1cc(CN(C)C(=O)c2c(-c3ccc(Cl)cc3F)c(C)c(C(F)(F)F)n2C2CC2)no1` [Example 020, 3-(4-Chloro-2-fluoro-phenyl)-1-cyclopropyl-N,4-dimethyl-N-[(5-methyl-isoxazol-3-yl)-methyl]-5-(trifluoromethyl)-1H-pyrrole-2-carboxylic acid amide] and `Cc1cnc(CN(C)C(=O)c2c(-c3ccc(Cl)cc3F)c(C)c(C(F)(F)F)n2C2CC2)cn1` [Example 024, 3-(4-Chloro-2-fluoro-phenyl)-1-cyclopropyl-N,4-dimethyl-N-[(5-methyl-pyrazin-2-yl)-methyl]-5-(trifluoromethyl)-1H-pyrrole-2-carboxylic acid amide] cannot be ordered by inhibition at 3 µM: greater than 95% for the first, greater than 95% for the second.

`Cc1c(-c2ccc(Cl)cc2F)c(C(=O)N(C)Cc2ccncn2)n(C2CC2)c1C(F)(F)F` [Example 021, 3-(4-Chloro-2-fluoro-phenyl)-1-cyclopropyl-N,4-dimethyl-N-(pyrimidin-4-yl-methyl)-5-(trifluoromethyl)-1H-pyrrole-2-carboxylic acid amide] and `Cc1c(-c2ccc(Cl)cc2)c(C(=O)N(C)CC2CCOC2)n(C2CC2)c1C(F)(F)F` (stereo not drawn) [Example 022, 3-(4-Chlorophenyl)-1-cyclopropyl-N,4-dimethyl-N-(tetrahydro-furan-3-yl-methyl)-5-(trifluoromethyl)-1H-pyrrole-2-carboxylic acid amide] cannot be ordered by inhibition at 3 µM: greater than 95% for the first, greater than 95% for the second.
